Where “and” joins values, the source holds several entries; their conditions need not be identical. Equal values may be shown once. Toxic doses and inconclusive results are not listed. How the source made its calls: active means survival T/C of 150% or more; inactive means T/C below 125% in these data.
System: P388 leukemia ip, CD2F1 mice, survival T/C
Experiment: NCI In Vivo Anticancer Drug Screen. Data for tumor model P388 Leukemia (intraperitoneal) in CD2F1 (CDF1) mice
Conditions: endpoint: median survival time, higher = longer survival
In short: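 Mice carrying the transplanted tumor received test compound or vehicle. Survival was recorded in each group, and the value is the treated-group measurement divided by that of the vehicle-treated control group.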

[1] = dose: 60.0 mg/kg/injection, schedule: Q01DX005 (ip), vehicle: saline with Tween-80
[2] = dose: 50.0 mg/kg/injection, schedule: Q01DX009 (ip), vehicle: saline
[3] = dose: 200.0 mg/kg/injection, schedule: Q01DX009 (ip), vehicle: saline
[4] = dose: 50.0 mg/kg/injection, schedule: Q01DX009 (ip), vehicle: Klucel (hydroxypropylcellulose) (HPC)
[5] = dose: 100.0 mg/kg/injection, schedule: Q01DX009 (ip), vehicle: Klucel (hydroxypropylcellulose) (HPC)
[6] = dose: 200.0 mg/kg/injection, schedule: Q01DX009 (ip), vehicle: Klucel (hydroxypropylcellulose) (HPC)
[7] = dose: 12.5 mg/kg/injection, schedule: Q01DX009 (ip), vehicle: saline
[8] = dose: 25.0 mg/kg/injection, schedule: Q01DX009 (ip), vehicle: saline
[9] = dose: 50.0 mg/kg/injection, schedule: Q01DX005 (ip), vehicle: Klucel (hydroxypropylcellulose) (HPC)
[10] = dose: 100.0 mg/kg/injection, schedule: Q01DX005 (ip), vehicle: Klucel (hydroxypropylcellulose) (HPC)

Measured: T/C

C=CCN1CCC23c4c5ccc(O)c4OC2C(=NN=C2CCC4(O)C6Cc7ccc(O)c8c7C4(CCN6CC=C)C2O8)CCC3(O)C1C5 (configuration not stated)
inactive: dose: 15.0 mg/kg/injection, schedule: Q01DX005 (ip), vehicle: saline with Tween-80 92 % of control | dose: 30.0 mg/kg/injection, schedule: Q01DX005 (ip), vehicle: saline with Tween-80 90 % of control | [1] 100 % of control and 101 % of control

O=S(=O)(O)SCCCSS(=O)(=O)O
inactive: [2] 100 % of control | dose: 100.0 mg/kg/injection, schedule: Q01DX009 (ip), vehicle: saline 99 % of control | [3] 102 % of control

O=C1N[C@H]2[C@H](CS[C@H]2CCCCC(=O)N(CCP(c2ccccc2)c2ccccc2)CCP(c2ccccc2)c2ccccc2)N1
inactive: dose: 12.5 mg/kg/injection, schedule: Q01DX009 (ip), vehicle: Klucel (hydroxypropylcellulose) (HPC) 104 % of control and 111 % of control | dose: 25.0 mg/kg/injection, schedule: Q01DX009 (ip), vehicle: Klucel (hydroxypropylcellulose) (HPC) 101 % of control and 105 % of control | [4] 103 % of control and 104 % of control | [5] 108 % of control and 124 % of control | [6] 114 % of control and 119 % of control | dose: 400.0 mg/kg/injection, schedule: Q01DX009 (ip), vehicle: Klucel (hydroxypropylcellulose) (HPC) 102 % of control and 114 % of control

Cc1ccc(Cl)cc1NS(=O)(=O)c1ccc(Br)cc1
inactive: dose: 100.0 mg/kg/injection, schedule: Q04DX003 (ip), vehicle: saline with Tween-80 100 % of control | dose: 200.0 mg/kg/injection, schedule: Q04DX003 (ip), vehicle: saline with Tween-80 100 % of control | dose: 400.0 mg/kg/injection, schedule: Q04DX003 (ip), vehicle: saline with Tween-80 104 % of control

CC1=NS(=O)(=O)NC(C)=C1CC1=C(C)NS(=O)(=O)N=C1C
inactive: [1] 99 % of control | dose: 120.0 mg/kg/injection, schedule: Q01DX005 (ip), vehicle: saline with Tween-80 107 % of control | dose: 240.0 mg/kg/injection, schedule: Q01DX005 (ip), vehicle: saline with Tween-80 106 % of control

O=C(CCCN1CCC(C(=O)c2ccc(Cl)cc2)CC1)c1ccc(F)cc1
inactive: dose: 3.0 mg/kg/injection, schedule: Q01DX009 (ip), vehicle: Klucel (hydroxypropylcellulose) (HPC) 99 % of control | dose: 6.0 mg/kg/injection, schedule: Q01DX009 (ip), vehicle: Klucel (hydroxypropylcellulose) (HPC) 97 % of control | dose: 12.0 mg/kg/injection, schedule: Q01DX009 (ip), vehicle: Klucel (hydroxypropylcellulose) (HPC) 108 % of control

O=C(O)c1cc2ccc(Cl)cc2[se]1
inactive: [7] 89 % of control | [8] 105 % of control | [2] 106 % of control and 88 % of control | [3] 91 % of control

c1ccc(-c2nc3ccccc3c3ccccc23)cc1
inactive: dose: 50.0 mg/kg/injection, schedule: Q01DX005 (ip), vehicle: saline with Tween-80 101 % of control | dose: 100.0 mg/kg/injection, schedule: Q01DX005 (ip), vehicle: saline with Tween-80 113 % of control | dose: 200.0 mg/kg/injection, schedule: Q01DX005 (ip), vehicle: saline with Tween-80 102 % of control

N=C(N)N=Nc1cc(O)c(NN=C(N)N)cc1O
inactive: dose: 1.56 mg/kg/injection, schedule: Q01DX005 (ip), vehicle: saline with Tween-80 102 % of control | dose: 3.13 mg/kg/injection, schedule: Q01DX005 (ip), vehicle: saline with Tween-80 99 % of control | dose: 6.25 mg/kg/injection, schedule: Q01DX005 (ip), vehicle: saline with Tween-80 102 % of control

CNC(=O)OC1CC2CCCCC2C([N+](C)(C)C)C1 (configuration not stated)
inactive: [7] 105 % of control | [8] 112 % of control | [2] 100 % of control and 106 % of control

CCc1nc(N)nc(N)c1-c1ccc2c(c1)nnn2C
inactive: [9] 104 % of control | [10] 104 % of control | dose: 200.0 mg/kg/injection, schedule: Q01DX005 (ip), vehicle: Klucel (hydroxypropylcellulose) (HPC) 95 % of control

OCC1OC(n2ncc3nccnc32)C(O)C1O (configuration not stated)
inactive: dose: 32.0 mg/kg/injection, schedule: Q01DX002 (ip), vehicle: saline with Tween-80 98 % of control and 114 % of control | dose: 64.0 mg/kg/injection, schedule: Q01DX002 (ip), vehicle: saline with Tween-80 98 % of control and 109 % of control | dose: 128.0 mg/kg/injection, schedule: Q01DX002 (ip), vehicle: saline with Tween-80 112 % of control and 114 % of control

Cc1ccc(C2=NN(c3ccccc3)C(c3ccccc3)C2NC2CCCCC2)cc1 (configuration not stated)
inactive: dose: 25.0 mg/kg/injection, schedule: Q01DX005 (ip), vehicle: Klucel (hydroxypropylcellulose) (HPC) 90 % of control | [9] 90 % of control | [10] 89 % of control

Cn1c(=O)c2nc(-c3ccccc3)nnc2n(CCO)c1=O
inactive: dose: 100.0 mg/kg/injection, schedule: Q04DX002 (ip), vehicle: Klucel (hydroxypropylcellulose) (HPC) 105 % of control | dose: 200.0 mg/kg/injection, schedule: Q04DX002 (ip), vehicle: Klucel (hydroxypropylcellulose) (HPC) 106 % of control | dose: 400.0 mg/kg/injection, schedule: Q04DX002 (ip), vehicle: Klucel (hydroxypropylcellulose) (HPC) 110 % of control

Brc1ccc2[nH]c3nc(N/N=C/c4cccs4)nnc3c2c1
inactive: dose: 100.0 mg/kg/injection, schedule: Q04DX002 (ip), vehicle: saline with Tween-80 90 % of control | dose: 200.0 mg/kg/injection, schedule: Q04DX002 (ip), vehicle: saline with Tween-80 99 % of control | dose: 400.0 mg/kg/injection, schedule: Q04DX002 (ip), vehicle: saline with Tween-80 106 % of control

Cc1cc(/C=C\c2ccc3ccccc3[n+]2C)c(O)c2ncccc12
inactive: dose: 12.5 mg/kg/injection, schedule: Q01DX009 (ip), vehicle: saline with Tween-80 114 % of control | dose: 25.0 mg/kg/injection, schedule: Q01DX009 (ip), vehicle: saline with Tween-80 106 % of control

CC1CC(C)NC(N=S(=O)(O)c2ccc(N)cc2)[N-]1.[Ag+] (configuration not stated)
inactive: [4] 106 % of control | [5] 100 % of control | [6] 94 % of control

O=S(c1ccccc1)c1c(Cl)c(Cl)nc(Cl)c1Cl (configuration not stated)
inactive: dose: 22.0 mg/kg/injection, schedule: Q01DX009 (ip), vehicle: saline with Tween-80 100 % of control and 113 % of control | dose: 33.0 mg/kg/injection, schedule: Q01DX009 (ip), vehicle: saline with Tween-80 109 % of control

O=C(N=Nc1c(Cl)c(O)c2ccccc2c1O)C(=O)Nc1ccc(Cl)c([N+](=O)[O-])c1
inactive: dose: 50.0 mg/kg/injection, schedule: Q01DX009 (ip), vehicle: saline with Tween-80 113 % of control | dose: 100.0 mg/kg/injection, schedule: Q01DX009 (ip), vehicle: saline with Tween-80 112 % of control

O=c1[nH]c2cc([N+](=O)[O-])ccc2nc1/C=C(\O)c1ccc(F)cc1
inactive: dose: 60.0 mg/kg/injection, schedule: Q01DX005 (ip), vehicle: Klucel + Tween-80 102 % of control | dose: 120.0 mg/kg/injection, schedule: Q01DX005 (ip), vehicle: Klucel + Tween-80 86 % of control

CC(=O)C1C(C)C(C(C)=O)N2C1SC1CCOC12C (configuration not stated)
inactive: dose: 10.0 mg/kg/injection, schedule: Q01DX001 (ip), vehicle: suspension in saline 106 % of control | dose: 20.0 mg/kg/injection, schedule: Q01DX001 (ip), vehicle: suspension in saline 105 % of control | dose: 40.0 mg/kg/injection, schedule: Q01DX001 (ip), vehicle: suspension in saline 101 % of control | dose: 80.0 mg/kg/injection, schedule: Q01DX001 (ip), vehicle: suspension in saline 102 % of control

CC(C)[C@](O)(C(=O)OCC1CCN2CC[C@@H](O)C12)[C@H](C)O (some centres not stated)
inactive: dose: 40.6 mg/kg/injection, schedule: Q01DX009 (ip), vehicle: saline 96 % of control | dose: 81.25 mg/kg/injection, schedule: Q01DX009 (ip), vehicle: saline 102 % of control | dose: 162.5 mg/kg/injection, schedule: Q01DX009 (ip), vehicle: saline 92 % of control and 98 % of control

— PubChem BioAssay AID330 (DTP/NCI, 2004)
